Columns and labels:
[1] = test system: Liver microsomes; assay: Intrinsic clearance in human liver microsomes assessed per mg of protein; type: ADME, Microsome
[2] = test system: Liver microsomes; assay: Intrinsic clearance in rat liver microsomes assessed per mg of protein; type: ADME, Microsome
[3] = Apparent permeability from apical to basolateral side of human Caco2 cells; type: ADME, cell-based; conditions: Caco-2, read-out: permeability
[4] = test system: Hepatocyte; assay: Intrinsic clearance in human hepatocytes assessed per 1 x 10^6 cells; type: ADME, cell-based, Liver
[5] = Intrinsic clearance in mouse liver microsomes assessed per mg of protein; type: ADME, Microsome
[6] = Apparent permeability from basolateral to apical side of human Caco2 cells; type: ADME, cell-based; conditions: Caco-2, read-out: permeability
[7] = test system: Hepatocyte; assay: Intrinsic clearance in rat hepatocytes assessed per 1 x 10^6 cells; type: ADME, cell-based, Liver
[8] = Oral bioavailability in C57 mouse; type: ADME, organism-based; conditions: in vivo
[9] = Half life in C57 mouse; type: ADME, organism-based; conditions: in vivo
[10] = Volume of distribution at steady state in C57 mouse; type: ADME, organism-based; conditions: in vivo, read-out: Vdss
[11] = Plasma clearance in C57 mouse; type: ADME, organism-based

SMILES	Papp A→B [3] [×10⁻⁶ cm/s]	Papp B→A [6] [×10⁻⁶ cm/s]	clearance [7] [µL/min/1e6 cells]	bioavailability [8] [%]	further results
O=c1[nH]ccc2cc(O[C@H]3CCCNC3)ccc12	14.3	11.2	< 6		clearance [1]: < 12 µL/min/mg; clearance [2]: 24 µL/min/mg; clearance [4]: 2 µL/min/1e6 cells; clearance [5]: 17 µL/min/mg
Nc1nccc2cc(O[C@H]3CCCNC3)ccc12				> 75	
c1ccc(CN2CCC[C@H](Oc3ccc4cnccc4c3)C2)cc1	11.6	17.6	21		
Nc1nccc2c(S(=O)(=O)N3CCCNCC3)cccc12				57	half-life [9]: 45 min; Vd [10]: 2.4 L/kg; clearance [11]: 34 mL/min/kg

From ChEMBL document CHEMBL1667835, “Optimisation of 6-substituted isoquinolin-1-amine based ROCK-I inhibitors” (Bioorg Med Chem Lett, 2011)
